Data reported in patent US20250195553A1, “Use of Genipin-1-B-D-Gentiobioside in Preparation of Drug” (Guizhou Bailing Group Pharmaceutical Co., Ltd., priority 2023, published 2025).
Values joined by “and” are separate entries in the source; they are usually repeats but may differ in a detail not shown here. Identical values can stand only once. Like-named read-outs stand apart in the source and are kept apart here.

Experiments:
Assay type in all cases: in vivo
[1] = system: Human Coronavirus 229E; assay: Cytokines in lung tissue of mice infected with human coronavirus 229E (ELISA); conditions: 4 days
Experimental: Seventy Institute of Cancer Research Mouse (ICR) mice were randomly divided into seven groups based on body weight: a normal control group, a model control group, a chloroquine phosphate control group, and four Genipin-1-β-D-gentiobioside dosage groups (75 mg/ml, 37.5 mg/ml, 18.75 mg/ml, and 9.375 mg/ml), with ten mice in each group. Except for the normal control group, the other mice were lightly anesthetized with isoflurane and infected intranasally with 50 μl of 100 TCID50 coronavirus strain 229E or OC43. The infection was repeated every other day. Nebulization administration began on the same day as the first infection, with a flow rate of 7.5 L/min. The four Genipin-1-β-D-gentiobioside dosage groups were nebulized for 25 minutes each. The chloroquine phosphate control group was administered 0.2 ml/10 g body weight by gavage once daily for four consecutive days. The normal control group and the model control group were nebulized with distilled water for 25 minutes under the same conditions. On the fifth day, the mice were dissected, and the following indicators were measured:
(2) The left lung lobes were used for viral nucleic acid detection, while the right lung lobes were used for the quantification of inflammatory factors: IL-6, IL-10, and TNF-α.
The inhalation administration samples mentioned above were used. The weight of the lung tissue was measured, and an appropriate amount of physiological saline was added to make a 10% tissue homogenate. After homogenizing the tissue using a high-throughput tissue grinder, it was centrifuged at 4° C. and 3000 rpm for 10 minutes using a low-temperature high-speed centrifuge. The supernatant was then aspirated, aliquotted, and stored at −80° C. for future use, avoiding repeated freeze-thaw cycles. For detection, the absorbance at 450 nm was measured using a microplate reader according to the kit instructions.

[2] = system: Human Coronavirus 229E (HCoV-229E); conditions: 4 days
[3] = system: Human Respiratory Syncytial Virus (RSV); assay: RSV viral load in mouse lung tissue (RT-PCR), nebulization
Experimental: […] Each group consisted of 10 mice, with an equal number of males and females. Except for the normal control group, all mice were lightly anesthetized with isoflurane and infected with respiratory syncytial virus (RSV) via intranasal administration, with each mouse receiving 35 μl of the virus. On the day of infection, the treatment groups began inhalation administration. Each group received nebulization for 25 minutes once daily for four consecutive days. The normal control group and the model control group received nebulized saline under the same conditions. On the fifth day, after weighing, the mice were sacrificed by cervical dislocation, and their lung tissues were dissected, weighed, and used to calculate the lung index and lung index inhibition rate. The lung tissues were also retained for virus load, pathological examination, and inflammatory factor detection. The results were statistically analyzed using the t-test for intergroup comparisons.
After dissecting the mice, the lung tissues were collected and stored in separate containers at −80° C. in a low-temperature freezer. The lung tissues were then removed from the −80° C. freezer and placed in a clean mortar. A small amount of liquid nitrogen was poured into the mortar, and the tissues were ground into powder using a pestle. The powder was collected in a 1.5 ml centrifuge tube, and 1 ml of TRIzol Reagent was immediately added. The tube was gently tapped at the bottom to mix the sample and ensure it was resuspended as soon as possible. The centrifuge tube was then placed horizontally at room temperature and incubated for 20 minutes. Next, it was centrifuged at 4° C. and 12,000 rpm for 10 minutes. The clear supernatant was transferred to a new 1.5 ml centrifuge tube, and 0.2 ml of chloroform was added. The tube was tightly capped, vigorously shaken for 15 seconds, and then incubated at room temperature for 2-3 minutes until the liquid separated into layers. After centrifuging at 4° C. and 12,000 rpm for 15 minutes, the transparent supernatant was carefully transferred to a new 1.5 ml centrifuge tube. Then, 0.5 ml of isopropanol was added, mixed well, and incubated at room temperature for 30 minutes. Following centrifugation at 4° C. and 12,000 rpm for 10 minutes, the supernatant was discarded. The precipitate was gently washed with 1 ml of 75% ethanol (to allow the white precipitate to float slightly), and then centrifuged at 4° C. and 7,500 rpm for 5 minutes. The supernatant was completely aspirated, and the RNA precipitate was briefly dried for 5-10 minutes. The precipitate was then dissolved in 20 μl of DEPC (Diethylpyrocarbonate)-treated water and stored in a −80° C. low-temperature freezer.
Treatment of Control Nucleic Acid: DEPC-H2O was used as a negative control. For the positive control, a series of four concentrations were prepared by gradient dilution at 10^7, 10^6, 10^5, and 10^4 copies/ml.
Reagent Preparation: Mix n×18 μl of RSV nucleic acid fluorescent PCR detection mixture, n×1 μl of internal control, and n×1 μl of RT-PCR enzyme (where n is the number of reaction tubes). Shake vigorously for a few seconds and centrifuge at 3000 rpm for a few seconds.
Sample Addition: Dispense 20 μl of the above mixture into each PCR tube. Then, add 5 μl of sample nucleic acid extract, DEPC-H2O, and positive control to the respective PCR tubes. Tightly close the tube caps, centrifuge for a few seconds to ensure all liquids are at the bottom, and immediately proceed with PCR amplification.
PCR Amplification: Place the reaction tubes in a quantitative fluorescent PCR instrument. Set the cycling parameters as follows: 45° C. for 10 minutes; 95° C. for 15 minutes; then 40 cycles of 95° C. for 15 seconds→60° C. for 60 seconds. Single-point fluorescent detection is performed at 60° C., with a reaction volume of 25 μl.
Fluorescent Channel Selection: Select the FAM and HEX/VIC/JOE channels for detection. […]

[4] = 37.5 mg/ml nebulization 25 min once daily 4 days
[5] = 75 mg/ml nebulization 25 min once daily 4 days

COC(=O)C1=CO[C@@H](O[C@@H]2O[C@H](CO[C@@H]3O[C@H](CO)[C@@H](O)[C@H](O)[C@H]3O)[C@@H](O)[C@H](O)[C@H]2O)[C@@H]2C(CO)=CC[C@H]12 [Genipin-1-β-D-gentiobioside]
Cytokine Levels in Lung Tissue IL-6 ([1]; 9.375 mg/ml inhalation): 98.70 ± 4.56 pg/mL | Cytokine Levels in Lung Tissue IL-10 ([1]; 9.375 mg/ml inhalation): 331.34 ± 28.00 pg/mL | Cytokine Levels in Lung Tissue TNF-α ([1]; 9.375 mg/ml inhalation): 511.16 ± 80.14 pg/mL | Cytokine Levels in Lung Tissue IL-6 ([1]; 18.75 mg/ml inhalation): 99.51 ± 5.24 pg/mL | Cytokine Levels in Lung Tissue IL-10 ([1]; 18.75 mg/ml inhalation): 330.61 ± 25.07 pg/mL | Cytokine Levels in Lung Tissue TNF-α ([1]; 18.75 mg/ml inhalation): 503.00 ± 56.50 pg/mL | Cytokine Levels in Lung Tissue IL-6 ([1]; 37.5 mg/ml inhalation): 98.23 ± 3.42 pg/mL | Cytokine Levels in Lung Tissue IL-10 ([1]; 37.5 mg/ml inhalation): 334.12 ± 25.59 pg/mL | Cytokine Levels in Lung Tissue TNF-α ([1]; 37.5 mg/ml inhalation): 513.28 ± 58.74 pg/mL | Cytokine Levels in Lung Tissue IL-6 ([1]; 75 mg/ml inhalation): 98.31 ± 2.78 pg/mL | Cytokine Levels in Lung Tissue IL-10 ([1]; 75 mg/ml inhalation): 341.12 ± 29.07 pg/mL | Cytokine Levels in Lung Tissue TNF-α ([1]; 75 mg/ml inhalation): 511.81 ± 51.82 pg/mL | Inhibition Rate (lung index) ([2]; 9.375 mg/ml inhalation 25 min): 65.98% | Lung Index ([2]; 9.375 mg/ml inhalation 25 min): 0.77 ± 0.08 g lung weight × 100 g/body weight | Inhibition Rate (lung index) ([2]; 18.75 mg/ml inhalation 25 min): 65.59% | Lung Index ([2]; 18.75 mg/ml inhalation 25 min): 0.77 ± 0.08 g lung weight × 100 g/body weight | Inhibition Rate (lung index) ([2]; 37.5 mg/ml inhalation 25 min): 64.22% | Lung Index ([2]; 37.5 mg/ml inhalation 25 min): 0.77 ± 0.05 g lung weight × 100 g/body weight | Inhibition Rate (lung index) ([2]; 75 mg/ml inhalation 25 min): 109.19% | Lung Index ([2]; 75 mg/ml inhalation 25 min): 0.71 ± 0.05 g lung weight × 100 g/body weight | Inhibition Rate (viral load) [3, 4]: 57.54% and 57.43% | Viral Load in lung tissue [3, 4]: 22127.79 ± 30384.54 copies/ng | Inhibition Rate (viral load) [3, 5]: 56.08% | Viral Load in lung tissue [3, 5]: 22745.57 ± 13287.06 copies/ng
